Experimental data: the supplement of paper PMC11451515

What was measured:
Assay in all cases: AUC of viability dose-response curve (% viability x log10 dose units); higher = less sensitive
Conditions in all cases: 48 h
NOMO1 = system: NOMO1
Procedure, shortened: (§1)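 Leukemia cells adapted to each medium were seeded in 1536-well plates (500 or 1000 cells/well). They were dosed with library compounds in DMSO at 11 threefold doses, 47 μM to 0.79 nM, for 48 h at 37°C. CellTiter-Glo One luminescence was normalised per plate to DMSO and cell-free wells. Area under the curve was integrated by trapezoidal rule over log10 doses on a four-parameter log-logistic fit; curves exceeding full viability were scaled and curves failing quality control removed.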

P12-Ichikawa = system: P12-Ichikawa
Procedure, shortened: as §1

SEM cells = system: SEM cells
Procedure, shortened: as §1

[1] = RPMI 5 mM glucose + 10% dialyzed FBS

Row | Compound | AUC of viability dose-response curve (NOMO1; HPLM + 10% dialyzed FBS) | AUC of viability dose-response curve (NOMO1; RPMI 5 mM glucose + 10% FBS) | AUC of viability dose-response curve (NOMO1; [1]) | AUC of viability dose-response curve (P12-Ichikawa; HPLM + 10% dialyzed FBS) | AUC of viability dose-response curve (P12-Ichikawa; RPMI 5 mM glucose + 10% FBS) | AUC of viability dose-response curve (P12-Ichikawa; [1]) | AUC of viability dose-response curve (SEM cells; HPLM + 10% dialyzed FBS) | AUC of viability dose-response curve (SEM cells; RPMI 5 mM glucose + 10% FBS) | AUC of viability dose-response curve (SEM cells; [1])
1 | Nc1nccc(-c2ccc3noc(-c4ccc(Cl)cc4)c3c2)n1 | 449 | 464 | 469 | 468 | 466 | 470 | 425 | 457 | 462
2 | Cc1cccc(-c2[nH]c(C(C)(C)C)nc2-c2ccc3nccnc3c2)n1 | 460 | 430 | 455 | 459 | 458 | 424 | 444 | 383 | 443
3 | CC(C)(Sc1cc(C(C)(C)C)c(O)c(C(C)(C)C)c1)Sc1cc(C(C)(C)C)c(O)c(C(C)(C)C)c1 | 449 | 428 | 436 | 445 | 414 | 405 | 385 | 415 | 409
4 | CC1=CC/2=C(C=C1C)N(C[C@@H](O)[C@@H](O)[C@@H](O)CO)C/3=N/C(=O)NC(=O)C3=N2 | 462 | 472 | 460 | 458 | 449 | 451 | 474 | 428 | 474
5 | COc1cc2c(cc1OC)CN(CCc1ccc(NC(=O)c3cccc4c(=O)c5cccc(OC)c5[nH]c34)cc1)CC2 | 348 | 391 | 395 | 326 | 372 | 366 | 380 | 276 | 320
6 | C[S+](=O)([O-])N1CCN(Cc2cc3nc(-c4cccc5[nH]ncc45)nc(N4CCOCC4)c3s2)CC1 | 381 | 421 | 384 | 428 | 420 | 414 | 356 | 348 | 348
7 | C=C1CCC2[C@](C)(CO)C(O)CC[C@]2(C)C1C/C=C1/C(=O)OCC1O (some centres not stated) | 395 | 459 | 453 | 454 | 457 | 448 | 439 | 383 | 420
8 | Clc1ccc(CCC(Cn2ccnc2)Sc2c(Cl)cccc2Cl)cc1 (configuration not stated) | 449 | 402 | 432 | 450 | 444 | 404 | 366 | 422 | 408
9 | COCCCC/C(=N\OCCN)c1ccc(C(F)(F)F)cc1 | 358 | 369 | 369 | 400 | 371 | 373 | 389 | 398 | 462
10 | OC1CCC(CC1)N2\C=N/C3=C(C2=N)C(=C([N]3CC4=CC=CC=C4)C5=CC=CC=C5)C6=CC=CC=C6 (configuration not stated) | 399 | 402 | 403 | 437 | 395 | 408 | 329 | 323 | 353
11 | NC(=O)N1CCC(CC(=O)N2CCC([C@H]3c4ncc(Br)cc4CCc4cc(Cl)cc(Br)c43)CC2)CC1 | 442 | 439 | 432 | 413 | 395 | 410 | 363 | 355 | 395
12 | CN(C)CCc1c[nH]c2ccc(Cn3cncn3)cc12 | 318 | 277 | 311 | 329 | 312 | 286 | 267 | 226 | 257
13 | C[C@H](NC(=O)[C@@H](O)c1cc(F)cc(F)c1)C(=O)N[C@@H]1C(=O)N(C)c2ccccc2-c2ccccc21 | 402 | 450 | 432 | 432 | 441 | 437 | 440 | 453 | 417
14 | Cc1nnc(C(=O)NC(C)(C)c2nc(C(=O)NCc3ccc(F)cc3)c(O)c(=O)n2C)o1 | 428 | 449 | 470 | 448 | 454 | 465 | 473 | 449 | 465
15 | CN1CCC(CNc2ccc3ncc(-c4cccc(OC(F)(F)F)c4)n3n2)CC1 | 429 | 399 | 425 | 449 | 435 | 420 | 329 | 334 | 340
16 | CO[C@H]1C[C@@H]2CC[C@@H](C)[C@@](O)(O2)C(=O)C(=O)N2CCCC[C@H]2C(=O)O[C@H]([C@@H](C)C[C@@H]2CC[C@@H](O)[C@H](OC)C2)CC(=O)[C@H](C)/C=C(\C)[C@@H](O)[C@@H](OC)C(=O)[C@H](C)C[C@H](C)/C=C/C=C/C=C/1C | 454 | 442 | 466 | 465 | 415 | 443 | 394 | 382 | 409
17 | COc1cc(N2CCN(C)CC2)ccc1Nc1nc(N)c(C(=O)c2c(Cl)cccc2Cl)s1 | 456 | 467 | 467 | 457 | 454 | 456 | 425 | 422 | 444
18 | CCN1\C=C(C(O)=O)/C(=O)C2=C1C(=C(N3CCNC(C)C3)C(=C2)F)F (configuration not stated) | 458 | 471 | 452 | 462 | 457 | 461 | 467 | 471 | 469
